Laboratory results from patent US20210338846A1, “COMPETITIVE PROSTATE-SPECIFIC MEMBRANE ANTIGEN (PSMA) BINDING AGENTS FOR REDUCTION OF NON-TARGET ORGAN UPTAKE OF RADIOLABELED PSMA INHIBITORS FOR PSMA POSITIVE TUMOR IMAGING AND RADIOPHARMACEUTICAL THERAPY” (The Johns Hopkins University, priority 2018, published 2021).
Like-named read-outs stand apart in the source and are kept apart here.

Assays:
[1] = test system: PSMA+ PC-3 PiP and PSMA− PC-3 flu tumors; type: in vivo; details: early time points
[2] = test system: PSMA+ PC-3 PiP and PSMA− PC-3 flu tumors
[3] = 1 h, co-injection 0.5 nmole YC-I-27
[4] = 4 h, co-injection 0.5 nmole YC-I-27
[5] = 24 h, co-injection 0.5 nmole YC-I-27

**Q.** How did the “effect of competing inhibitor on uptake of [125I]VK-02-90-Lu in kidneys, salivary glands and lacrimal glands” value [1] turn out when O=C(O)CC[C@H](NC(=O)N[C@@H](CCCCN(Cc1ccc(I)cc1)C(=O)CCCCNC(=O)CN1CCN(CC(=O)O)CCN(CC(=O)O)CCN(CC(=O)O)CC1)C(=O)O)C(=O)O [VK-02-90] was run?
**A.** Its value is “effective CI”.

**Q.** With O=C([O-])CN1CCN(CC(=O)[O-])CCN(CC(=O)NCCCCC(=O)N(CCCC[C@H](NC(=O)N[C@@H](CCC(=O)O)C(=O)O)C(=O)O)Cc2ccc([211At])cc2)CCN(CC(=O)[O-])CC1.[Lu+3] [[^211At]VK-02-90-Lu] as the molecule, how does the “Biodistribution: Blood” value ([2]; 1 h, No CI) read?
**A.** Its value is 0.8 ± 0.2 % injected dose/gram.

**Q.** What about the “Biodistribution: Flu tumor” value ([2]; 1 h, No CI) of the same molecule?
**A.** Its value is 0.4 ± 0.2 % injected dose/gram.

**Q.** And the “Biodistribution: Lacrimal gland” value ([2]; 1 h, No CI)?
**A.** Its value is 0.8 ± 0.9 % injected dose/gram.

**Q.** What about the “Biodistribution: PiP tumor” value ([2]; 1 h, No CI) of the same molecule?
**A.** Its value is 31 ± 5 % injected dose/gram.

**Q.** And the “Biodistribution: Salivary gland” value ([2]; 1 h, No CI)?
**A.** The value was 0.5 ± 0.2 % injected dose/gram.

**Q.** What about the “Biodistribution: kidneys” value ([2]; 1 h, No CI) of the same molecule?
**A.** Its value is 90 ± 43 % injected dose/gram.

**Q.** And the “Biodistribution: spleen” value ([2]; 1 h, No CI)?
**A.** Its value is 2.5 ± 0.9 % injected dose/gram.

**Q.** What about the “Biodistribution: stomach” value ([2]; 1 h, No CI) of the same molecule?
**A.** The value was 0.4 ± 0.1 % injected dose/gram.

**Q.** What about the “Biodistribution: Blood” value [2, 3] of the same molecule?
**A.** Its value is 0.5 ± 0.1 % injected dose/gram.

**Q.** And the “Biodistribution: Flu tumor” value [2, 3]?
**A.** The value was 0.4 ± 0.1 % injected dose/gram.

**Q.** What about the “Biodistribution: Lacrimal gland” value [2, 3] of the same molecule?
**A.** Its value is 0 % injected dose/gram.

**Q.** What about the “Biodistribution: PiP tumor” value [2, 3] of the same molecule?
**A.** Its value is 25 ± 4 % injected dose/gram.

**Q.** What about the “Biodistribution: Salivary gland” value [2, 3] of the same molecule?
**A.** Its value is 0.4 ± 0.2 % injected dose/gram.

**Q.** What about the “Biodistribution: kidneys” value [2, 3] of the same molecule?
**A.** Its value is 2.2 ± 0.6 % injected dose/gram.

**Q.** And the “Biodistribution: spleen” value [2, 3]?
**A.** Its value is 0.3 ± 0.4 % injected dose/gram.

**Q.** And the “Biodistribution: stomach” value [2, 3]?
**A.** Its value is 0.4 ± 0.2 % injected dose/gram.

**Q.** And the “Biodistribution: Blood” value ([2]; 4 h, No CI)?
**A.** The value was 0.1 ± 0.03 % injected dose/gram.

**Q.** And the “Biodistribution: Flu tumor” value ([2]; 4 h, No CI)?
**A.** Its value is 0.1 ± 0.1 % injected dose/gram.

**Q.** And the “Biodistribution: Lacrimal gland” value ([2]; 4 h, No CI)?
**A.** Its value is 0.3 ± 1.1 % injected dose/gram.

**Q.** And the “Biodistribution: PiP tumor” value ([2]; 4 h, No CI)?
**A.** The value was 17 ± 5 % injected dose/gram.

**Q.** And the “Biodistribution: Salivary gland” value ([2]; 4 h, No CI)?
**A.** The value was 0.2 ± 0.1 % injected dose/gram.

**Q.** What about the “Biodistribution: kidneys” value ([2]; 4 h, No CI) of the same molecule?
**A.** The value was 2.1 ± 0.6 % injected dose/gram.

**Q.** And the “Biodistribution: spleen” value ([2]; 4 h, No CI)?
**A.** Its value is 0 % injected dose/gram.

**Q.** And the “Biodistribution: stomach” value ([2]; 4 h, No CI)?
**A.** Its value is 0.3 ± 0.2 % injected dose/gram.

**Q.** And the “Biodistribution: Blood” value [2, 4]?
**A.** The value was 0.2 ± 0.1 % injected dose/gram.

**Q.** And the “Biodistribution: Flu tumor” value [2, 4]?
**A.** The value was 0.0 ± 0.04 % injected dose/gram.

**Q.** And the “Biodistribution: Lacrimal gland” value [2, 4]?
**A.** The value was 0 % injected dose/gram.

**Q.** What about the “Biodistribution: PiP tumor” value [2, 4] of the same molecule?
**A.** Its value is 19 ± 5 % injected dose/gram.

**Q.** And the “Biodistribution: Salivary gland” value [2, 4]?
**A.** The value was 0.3 ± 0.2 % injected dose/gram.

**Q.** And the “Biodistribution: kidneys” value [2, 4]?
**A.** Its value is 0.7 ± 0.1 % injected dose/gram.

**Q.** And the “Biodistribution: spleen” value [2, 4]?
**A.** The value was 0.8 ± 0.5 % injected dose/gram.

**Q.** And the “Biodistribution: stomach” value [2, 4]?
**A.** Its value is 0.4 ± 0.05 % injected dose/gram.

**Q.** What about the “Biodistribution: Blood” value ([2]; 24 h, No CI) of the same molecule?
**A.** The value was 0 % injected dose/gram.

**Q.** What about the “Biodistribution: Flu tumor” value ([2]; 24 h, No CI) of the same molecule?
**A.** The value was 0 % injected dose/gram.

**Q.** What about the “Biodistribution: Lacrimal gland” value ([2]; 24 h, No CI) of the same molecule?
**A.** Its value is 0 % injected dose/gram.

**Q.** And the “Biodistribution: PiP tumor” value ([2]; 24 h, No CI)?
**A.** Its value is 9.5 ± 1.0 % injected dose/gram.

**Q.** And the “Biodistribution: Salivary gland” value ([2]; 24 h, No CI)?
**A.** Its value is 0 % injected dose/gram.

**Q.** What about the “Biodistribution: kidneys” value ([2]; 24 h, No CI) of the same molecule?
**A.** Its value is 0.02 ± 0.02 % injected dose/gram.

**Q.** And the “Biodistribution: spleen” value ([2]; 24 h, No CI)?
**A.** Its value is 0 % injected dose/gram.

**Q.** And the “Biodistribution: stomach” value ([2]; 24 h, No CI)?
**A.** The value was 0 % injected dose/gram.

**Q.** And the “Biodistribution: Blood” value [2, 5]?
**A.** Its value is 0.03 ± 0.3 % injected dose/gram.

**Q.** And the “Biodistribution: Flu tumor” value [2, 5]?
**A.** Its value is 0.2 ± 0.3 % injected dose/gram.

**Q.** What about the “Biodistribution: Lacrimal gland” value [2, 5] of the same molecule?
**A.** Its value is 0 % injected dose/gram.

**Q.** What about the “Biodistribution: PiP tumor” value [2, 5] of the same molecule?
**A.** The value was 18 ± 8 % injected dose/gram.

**Q.** And the “Biodistribution: Salivary gland” value [2, 5]?
**A.** Its value is 0 % injected dose/gram.

**Q.** And the “Biodistribution: kidneys” value [2, 5]?
**A.** The value was 0.4 ± 0.5 % injected dose/gram.

**Q.** What about the “Biodistribution: spleen” value [2, 5] of the same molecule?
**A.** Its value is 02.5 ± 4.3 % injected dose/gram.

**Q.** What about the “Biodistribution: stomach” value [2, 5] of the same molecule?
**A.** Its value is 0.4 ± 0.7 % injected dose/gram.
